According to paper PMC10739246 (ACS Bio & Med Chem Au, 2023):
≈ marks a conversion by molar mass, not a printed value. Like-named read-outs stand apart in the source and are kept apart here. Residues, ends and D or L forms follow the SMILES beside them.

Key:
[1] = test system: M. tuberculosis (MC26020); test: microbe, parasite or virus in culture; assay type: cell-based, Mycobacterium tuberculosis; settings: for MIC: Mycobacterium tuberculosis, read-out: MIC M. tuberculosis (MC26020)
[2] = test system: E. faecalis (ATCC 19433); test: MIC, E. faecalis ATCC 19433; assay type: cell-based, Enterococcus faecalis
[3] = test system: P. aeruginosa (PAO1); test: MIC, microdilution, P. aeruginosa PAO1; assay type: cell-based, Pseudomonas aeruginosa
[4] = test system: K. pneumoniae (ATCC 10031); test: MIC, K. pneumoniae ATCC 10031; assay type: cell-based, Klebsiella pneumoniae
[5] = test system: E. coli (W3110); test: MIC, microdilution, E. coli W3110; assay type: cell-based, Escherichia coli
[6] = test system: S. aureus (CCUG1800T); test: MIC, microdilution, S. aureus CCUG1800T; assay type: cell-based, Staphylococcus aureus
[7] = test system: S. aureus (ATCC 43300) MRSA; test: MIC, microdilution, MRSA ATCC 43300; assay type: cell-based, Staphylococcus aureus; settings: for MIC: norfloxacin-resistant strain
[8] = test system: norfloxacin-resistant clinical isolate of E. coli; test: MIC, microdilution, norfloxacin-resistant clinical isolate of E. coli; assay type: cell-based, Escherichia coli; settings: read-out: MIC E. coli (norfloxacin-resistant strain)
[9] = test system: cell wall biosynthesis in B. subtilis DSM402; test: Summary of cell wall synthesis experiments; assay type: cell-based, Bacillus subtilis
[10] = test system: B. subtilis DSM402; settings: for μM (concentration used, 1x MIC): Table 2, cells treated with 1x MIC
[11] = test system: MreB in B. subtilis MW10; test: MreB mobility assay; assay type: cell-based, Bacillus subtilis; settings: B. subtilis MW10, 1 h of antibiotic exposure
Description: MreB is an actin homologue that forms filamentous structures along the lateral axis of the cell. It moves along the length of the cells in a spiraling pattern thereby driving lateral peptidoglycan synthesis.[36],[37] MreB mobility is sensitive to inhibition of peptidoglycan synthesis and so far, every cell wall synthesis inhibitor we tested abolished MreB movement (see Figure S70 for examples).
Expression of msfGFP-MreB was induced with 0.3% xylose. Pictures were taken after 1 h of antibiotic exposure. Two images of the same field of view were recorded 30 s apart and overlaid in ImageJ to visualize MreB mobility. A perfect overlap (yellow) indicates stalled MreB movement, while distinct red and green foci are indicative of MreB mobility. Scale bar 2 μm.
Fig. S70: MreB motility in B. subtilis MW10 after treatment with different cell wall synthesis inhibitors. Expression of GFP-MreB was induced with 0.3% xylose. Cells were treated with 1x […]
Two images of the same field of view were recorded 30 sec apart and overlaid in ImageJ to visualize MreB mobility. A perfect overlap (yellow) indicates stalled MreB movement while distinct red and green spots are indicative of MreB mobility. Scale bar 2 µm.

[12] = test system: B. subtilis DSM402; test: Peptidoglycan integrity assay (acetic acid/methanol fixation); settings: 1x MIC; 30 min (cell wall inhibitors) or 60 min
[13] = test system: MurG in B. subtilis TNVS175; test: MurG localization; assay type: cell-based, Bacillus subtilis; settings: 1x MIC; 30 min (vancomycin) or 1 h;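 further: normal MurG forms small membrane spots and peptidoglycan inhibition gives large clusters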
[14] = test system: B. subtilis DSM402; test: Bacterial cytological profiling (BCP) in B. subtilis DSM402; assay type: cell-based, Bacillus subtilis; settings: for DAPI / phase contrast / FM4-64: 1x MIC, 1 h; for DAPI: DNA condensation; for phase contrast: indicates cell lysis; for FM4-64: membrane stain; for gyrase inhibition / membrane damage: interpretation of BCP in B. subtilis
[15] = test system: E. coli
[16] = test system: E. coli BCB472; test: GlpT localization (inner membrane) in E. coli BCB472; settings: 1x MIC, 1 h; GFP-tagged membrane protein
[17] = test system: E. coli W3110; test: Bacterial cytological profiling (BCP) in E. coli W3110; assay type: cell-based, Escherichia coli
[18] = Enterococcus faecalis, ATCC19433
[19] = Klebsiella pneumoniae, ATCC10031
[20] = Escherichia coli, Gram-negative strain, average of duplicate experiments, read-out: MIC E. coli (W3110)
[21] = Gram-negative strain, average of duplicate experiments, read-out: MIC E. coli (W3110)
[22] = read-out: MIC S. aureus (CCUG1800T)
[23] = norfloxacin-resistant clinical isolate
[24] = interpretation of BCP in E. coli

CCn1cc(C(=O)O)c(=O)c2cc(F)c(N3CCN(C(=O)CNc4ccc(Br)cc4)CC3)cc21 [4b]
MIC [1]: 3.76 µM (≈ 2 µg/mL) | MIC [2, 18]: 7.52 µM (≈ 4 µg/mL) | MIC ([3]; Pseudomonas aeruginosa, PAO1): 723 µM (≈ 384 µg/mL) | MIC [4, 19]: > 964 µM | MIC [5, 20]: 30.1 µM (≈ 16 µg/mL) | MIC ([6]; Staphylococcus aureus; Tab. S10, DNA gyrase side; strain not given, values equal S. aureus CCUG1800T of Table 1; read-out: MIC): 1.88 µM (≈ 0.999 µg/mL) | MIC ([6]; Staphylococcus aureus; read-out: MIC S. aureus (CCUG1800T)): 1.88 µM (≈ 0.999 µg/mL) | MIC ([7]; Staphylococcus aureus): > 964 µM | MIC ([8]; Escherichia coli): > 964 µM

CCn1cc(C(=O)O)c(=O)c2cc(F)c(N3CCN(C(=O)Cn4ccnc4)CC3)cc21 [8a]
MIC [1]: 2.33 µM (≈ 0.996 µg/mL) | MIC [2, 18]: 14 µM (≈ 6 µg/mL) | MIC ([3]; Pseudomonas aeruginosa, PAO1): 150 µM (≈ 64 µg/mL) | MIC [4, 19]: 9.35 µM (≈ 4 µg/mL) | MIC [5, 20]: 4.67 µM (≈ 2 µg/mL) | MIC ([5]; Escherichia coli, Tab. S10, topoisomerase IV side, strain not given, values equal E. coli W3110 of Table 1, read-out: MIC): 4.67 µM (≈ 2 µg/mL) | MIC ([6]; Staphylococcus aureus, read-out: MIC S. aureus (CCUG1800T)): 2.33 µM (≈ 0.996 µg/mL) | MIC ([7]; Staphylococcus aureus): 299 µM (≈ 128 µg/mL) | MIC ([8]; Escherichia coli): 74.9 µM (≈ 32 µg/mL)

CCn1cc(C(=O)O)c(=O)c2cc(F)c(N3CCN(CN4C(=O)C(=O)c5cc(C)ccc54)CC3)cc21 [20b]
MIC M. tuberculosis (MC26020) [1]: 129.94 µM (≈ 64 µg/mL) | MIC [2]: 6.09 µM (≈ 3 µg/mL) | MIC [3]: 16.24 µM (≈ 8 µg/mL) | MIC [4]: 3.04 µM (≈ 1.5 µg/mL) | MIC [5, 21]: 5.07 µM (≈ 2.5 µg/mL) | MIC [6, 22]: 32.48 µM (≈ 16 µg/mL) | MIC [7]: 259.89 µM (≈ 128 µg/mL) | MIC [8, 23]: >1039.59 µM

CCn1cc(C(=O)O)c(=O)c2cc(F)c(N3CCN(CN4C(=O)C(=O)c5cc(OC)ccc54)CC3)cc21 [20c]
MIC M. tuberculosis (MC26020) [1]: >1006.88 µM | MIC [2]: 251.72 µM (≈ 128 µg/mL) | MIC [3]: 62.93 µM (≈ 32 µg/mL) | MIC [4]: 503.44 µM (≈ 256 µg/mL) | MIC [5, 21]: 4.91 µM (≈ 2.5 µg/mL) | MIC [6, 22]: 31.46 µM (≈ 16 µg/mL) | fold more active than norfloxacin [7]: 6.3 fold | MIC [7]: 15.73 µM (≈ 8 µg/mL) | MIC [8, 23]: 1006.88 µM (≈ 512 µg/mL)

N[C@@H]1CON=C1O [D-Cyc, D-cycloserine]
CWB inhibited? [9]: yes | μM (concentration used, 1x MIC) [10]: 293.85 µM | MreB mobility [11]: static with foci | PG integrity [12]: compromised | protein localization MurG [13]: patchy

CCCCCCCCCC(=O)N[C@@H](Cc1c[nH]c2ccccc12)C(=O)N[C@H](CC(N)=O)C(=O)N[C@@H](CC(=O)O)C(=O)N[C@@H]1C(=O)NCC(=O)N[C@@H](CCCN)C(=O)N[C@@H](CC(=O)O)C(=O)N[C@H](C)C(=O)N[C@@H](CC(=O)O)C(=O)NCC(=O)N[C@H](CO)C(=O)N[C@@H]([C@H](C)CC(=O)O)C(=O)N[C@@H](CC(=O)c2ccccc2N)C(=O)O[C@@H]1C [Dap, daptomycin, reference compound]
DAPI [14]: regular | phase contrast [14]: dark | FM4-64 [14]: patchy | gyrase inhibition [14]: no | membrane damage [14]: yes

C[C@@H]1O[C@@H]1P(=O)(O)O [Fos, fosfomycin]
CWB inhibited? [9]: yes | μM (concentration used, 1x MIC) [10]: 72.43 µM | MreB mobility [11]: static with foci | PG integrity [12]: compromised | protein localization MurG [13]: patchy/dispersed

NNC(=O)c1ccncc1 [INH, isoniazid, reference compound]
MIC [1]: 1.82 µM (≈ 0.25 µg/mL)

CC(C)C[C@@H]1NC(=O)[C@@H](Cc2ccccc2)NC(=O)[C@H](CCN)NC(=O)[C@@H](NC(=O)[C@H](CCN)NC(=O)[C@@H](N)[C@@H](C)O)CCNC(=O)[C@H]([C@@H](C)O)NC(=O)[C@H](CCN)NC(=O)[C@H](CCN)NC1=O [PolBN, polymyxin B nonapeptide, reference compound] (HELM PEPTIDE1{T.[Dab].[Dab].[Dab].[dF].L.[Dab].[Dab].T}$PEPTIDE1,PEPTIDE1,3:R3-9:R2$$$V2.0; N-terminus assumed)
FICI (fractional inhibitory concentration index) [15]: 0.0234 | MICC (MIC of the test compound alone) [15]: 128 µg/mL | FICC (fractional inhibitory concentration of the test compound) ([15]; MICCcheckerboard/MICC): 0.0078 | MICCcheckerboard (MIC of the test compound in checkerboard assay) ([15]; combined with mupirocin): 1 µg/mL | FICM (MICMcheckerboard/MICM) ([15]; mupirocin alone 64 µg/mL): 0.0156 | MICMcheckerboard (MIC of mupirocin in checkerboard assay) ([15]; mupirocin combined with the compound of the line): 1 µg/mL

CCn1cc(C(=O)O)c(=O)c2cc(F)c(N3CCN(C(=O)CNNC(=O)c4ccncc4)CC3)cc21 [compound 16]
MIC M. tuberculosis (MC26020) [1]: 1 µM (≈ 0.496 µg/mL) | MIC [2]: 2.01 µM (≈ 0.998 µg/mL) | DAPI [14]: condensed | phase contrast [14]: dark | FM4-64 [14]: patchy | gyrase inhibition [14]: yes | membrane damage [14]: yes | MIC [3]: 515.61 µM (≈ 256 µg/mL) | CWB inhibited? [9]: no | MIC [4]: 12.08 µM (≈ 6 µg/mL) | MIC [5, 21]: 64.45 µM (≈ 32 µg/mL) | concentration (MIC against B. subtilis DSM402) ([10]; Tab. S13, concentrations represent MIC values): 2.01 µM | μM (concentration used, 1x MIC) [10]: 2.01 µM | MIC ([6]; Tab. S10, DNA gyrase side; strain not given, values equal S. aureus CCUG1800T of Table 1; read-out: MIC): 2.01 µM (≈ 0.998 µg/mL) | MIC [6, 22]: 2.01 µM (≈ 0.998 µg/mL) | PG integrity [12]: intact | MIC [7]: 64.45 µM (≈ 32 µg/mL) | MIC [8, 23]: 32.22 µM (≈ 16 µg/mL)

polymyxin B [PolB, reference compound]
GlpT [16]: dispersed | concentration (MIC against E. coli W3110) ([5]; Tab. S11, concentrations represent MIC values): 0.83 µM | DAPI ([17]; 1x MIC, 1 h, DNA condensation): dispersed | phase contrast ([17]; 1x MIC, 1 h, indicates cell lysis): dark | FM4-64 ([17]; 1x MIC, 1 h, membrane stain): patchy | gyrase inhibition [17, 24]: no | membrane damage [17, 24]: yes

tunicamycin
CWB inhibited? [9]: yes | μM (concentration used, 1x MIC) [10]: 19.58 µM | MreB mobility [11]: static | PG integrity [12]: compromised | protein localization MurG [13]: patchy
